#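 All cell lines were grown in 96-well plates and treated with compound for 48 hours. TGI denotes the concentration required for complete inhibition of growth.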
# Tests used:
# Assay in all cases: growth of human tumour cells (NCI), 48 h
# [1] = system: UACC-257 melanoma
# [2] = system: MCF7 breast
# [3] = system: COLO 205 colon
# [4] = system: HCT-116 colon
# [5] = system: NCI-H23 lung
# [6] = system: A498 renal
# [7] = system: MOLT-4 leukemia
# [8] = system: HOP-62 NSCLC
# [9] = system: SW-620 colon
# [10] = system: SK-MEL-28 melanoma
# [11] = system: SNB-19 CNS
# [12] = system: BT-549 breast
# [13] = system: SNB-75 CNS
# [14] = system: CAKI-1 renal
# [15] = system: EKVX NSCLC
# [16] = system: SN12C renal
# [17] = system: LOX IMVI melanoma
# [18] = system: RXF 393 renal
# [19] = system: MDA-MB-435
# [20] = system: U251 CNS
# [21] = system: OVCAR-8 ovarian
# [22] = system: SF-539 CNS
# [23] = system: A549 NSCLC
# [24] = system: T-47D breast
# [25] = system: SF-268 CNS
# [26] = system: 786-0 renal
# [27] = system: HL-60(TB) leukemia
# [28] = system: HCC-2998 colon
# [29] = system: SK-OV-3 ovarian
# [30] = system: DU-145 prostate
# [31] = system: OVCAR-5 ovarian
# [32] = system: IGROV1 ovarian
# [33] = system: RPMI-8226 leukemia
# [34] = system: NCI-H226 lung
# [35] = system: MALME-3M melanoma
# [36] = system: UACC-62 melanoma
# [37] = system: HT29 colon
# [38] = system: NCI-H460 lung
# [39] = system: SF-295 CNS
# [40] = system: MDA-MB-231 breast
# [41] = system: K-562 leukemia
# [42] = system: OVCAR-3 ovarian
# [43] = system: SK-MEL-5 melanoma
# [44] = system: KM12 colon
# [45] = system: TK-10 renal
# [46] = system: CCRF-CEM leukemia
# [47] = system: OVCAR-4 ovarian
# [48] = system: MDA-N
# [49] = system: ACHN renal
# [50] = system: HCT-15 colon
# [51] = system: UO-31 renal
# [52] = system: NCI/ADR-RES ovarian
# [53] = system: SR leukemia
# [54] = system: HS 578T breast
# [55] = system: PC-3 prostate
# [56] = system: HOP-92 NSCLC
# [57] = system: M14 melanoma
# [58] = system: SK-MEL-2 melanoma
# [59] = system: NCI-H522 lung
structure (smiles),measurement,setting,value
CCOC(=O)Cc1nc2nn(Cc3ccccc3)cc2c(=O)[nH]1,TGI,[1],> 100 µM
same,TGI,[2],> 100 µM
same,TGI,[3],> 100 µM
same,TGI,[4],> 100 µM
same,TGI,[5],> 100 µM
same,TGI,[6],> 100 µM
same,TGI,[7],> 100 µM
same,TGI,[8],> 100 µM
same,TGI,[9],> 100 µM
same,TGI,[10],> 100 µM
same,TGI,[11],> 100 µM
same,TGI,[12],> 100 µM
same,TGI,[13],> 100 µM
same,TGI,[14],> 100 µM
same,TGI,[15],> 100 µM
same,TGI,[16],> 100 µM
same,TGI,[17],> 100 µM
same,TGI,[18],> 100 µM
same,TGI,[19],> 100 µM
same,TGI,[20],> 100 µM
same,TGI,[21],> 100 µM
same,TGI,[22],> 100 µM
same,TGI,[23],> 100 µM
same,TGI,[24],> 100 µM
same,TGI,[25],> 100 µM
same,TGI,[26],> 100 µM
same,TGI,[27],> 100 µM
same,TGI,[28],> 100 µM
same,TGI,[29],> 100 µM
same,TGI,[30],> 100 µM
same,TGI,[31],> 100 µM
same,TGI,[32],> 100 µM
same,TGI,[33],> 100 µM
same,TGI,[34],> 100 µM
same,TGI,[35],> 100 µM
same,TGI,[36],> 100 µM
same,TGI,[37],> 100 µM
same,TGI,[38],> 100 µM
same,TGI,[39],> 100 µM
same,TGI,[40],> 100 µM
same,TGI,[41],> 100 µM
same,TGI,[42],> 100 µM
same,TGI,[43],> 100 µM
same,TGI,[44],> 100 µM
same,TGI,[45],> 100 µM
same,TGI,[46],> 100 µM
same,TGI,[47],> 100 µM
same,TGI,[48],> 100 µM
same,TGI,[49],> 100 µM
same,TGI,[50],> 100 µM
same,TGI,[51],> 100 µM
same,TGI,[52],> 100 µM
Cc1cc(C)n(C(=O)C(C)Sc2nnc(SC(C)C(=O)n3nc(C)cc3C)s2)n1 (stereo not given),TGI,[1],> 100 µM
same,TGI,[2],> 100 µM
same,TGI,[3],> 100 µM
same,TGI,[4],> 100 µM
same,TGI,[5],> 100 µM
same,TGI,[6],> 100 µM
same,TGI,[7],> 100 µM
same,TGI,[8],> 100 µM
same,TGI,[9],> 100 µM
same,TGI,[10],> 100 µM
same,TGI,[11],> 100 µM
same,TGI,[12],> 100 µM
same,TGI,[53],> 100 µM
same,TGI,[13],> 100 µM
same,TGI,[14],> 100 µM
same,TGI,[15],> 100 µM
same,TGI,[17],> 100 µM
same,TGI,[18],> 100 µM
same,TGI,[19],> 100 µM
same,TGI,[20],> 100 µM
same,TGI,[21],> 100 µM
same,TGI,[54],> 100 µM
same,TGI,[23],> 100 µM
same,TGI,[55],> 100 µM
same,TGI,[25],> 100 µM
same,TGI,[26],> 100 µM
same,TGI,[56],> 100 µM
same,TGI,[27],> 100 µM
same,TGI,[28],> 100 µM
same,TGI,[29],> 100 µM
same,TGI,[57],> 100 µM
same,TGI,[30],> 100 µM
same,TGI,[31],> 100 µM
same,TGI,[32],> 100 µM
same,TGI,[33],> 100 µM
same,TGI,[34],> 100 µM
same,TGI,[35],> 100 µM
same,TGI,[36],> 100 µM
same,TGI,[37],> 100 µM
same,TGI,[38],> 100 µM
same,TGI,[39],> 100 µM
same,TGI,[58],> 100 µM
same,TGI,[40],> 100 µM
same,TGI,[41],> 100 µM
same,TGI,[42],> 100 µM
same,TGI,[43],> 100 µM
same,TGI,[44],> 100 µM
same,TGI,[45],> 100 µM
same,TGI,[46],> 100 µM
same,TGI,[47],> 100 µM
same,TGI,[48],> 100 µM
same,TGI,[49],> 100 µM
same,TGI,[50],> 100 µM
same,TGI,[51],> 100 µM
same,TGI,[52],> 100 µM
O=C(NN1C(=O)/C(=C/c2ccc(Cl)cc2)N=C1c1ccccc1)c1c(Cl)c(Cl)c(Cl)c(Cl)c1-c1nc2ccccc2[nH]1,TGI,[2],60.3 µM
same,TGI,[3],> 100 µM
same,TGI,[4],45.2 µM
same,TGI,[5],34.9 µM
same,TGI,[6],44.5 µM
same,TGI,[7],> 100 µM
same,TGI,[8],> 100 µM
same,TGI,[9],> 100 µM
same,TGI,[10],> 100 µM
same,TGI,[11],> 100 µM
same,TGI,[12],32.8 µM
same,TGI,[53],27.1 µM
same,TGI,[13],52.6 µM
same,TGI,[14],78.8 µM
same,TGI,[15],> 100 µM
same,TGI,[16],86.4 µM
same,TGI,[17],62.8 µM
same,TGI,[19],11.6 µM
same,TGI,[21],> 100 µM
same,TGI,[54],95.3 µM
same,TGI,[22],> 100 µM
same,TGI,[23],> 100 µM
same,TGI,[24],9.72 µM
same,TGI,[55],> 100 µM
same,TGI,[59],83.4 µM
same,TGI,[25],62.5 µM
same,TGI,[26],55.9 µM
same,TGI,[56],37.3 µM
same,TGI,[27],50.5 µM
same,TGI,[28],31.8 µM
same,TGI,[29],> 100 µM
same,TGI,[57],68.8 µM
same,TGI,[30],61.9 µM
same,TGI,[31],> 100 µM
same,TGI,[32],> 100 µM
same,TGI,[34],68.2 µM
same,TGI,[35],54.6 µM
same,TGI,[36],30.9 µM
same,TGI,[37],> 100 µM
same,TGI,[38],16.2 µM
same,TGI,[39],> 100 µM
same,TGI,[58],61.7 µM
same,TGI,[41],50 µM
same,TGI,[42],> 100 µM
same,TGI,[43],> 100 µM
same,TGI,[44],28.5 µM
same,TGI,[46],> 100 µM
same,TGI,[48],31.5 µM
same,TGI,[49],75.3 µM
same,TGI,[50],28.3 µM
same,TGI,[51],> 100 µM
same,TGI,[52],42.2 µM
CC(=O)/C(=C/N1C(=O)CC(=O)NC1=S)C(=O)Nc1ccccc1C,TGI,[1],> 100 µM
same,TGI,[2],> 100 µM
same,TGI,[3],> 100 µM
same,TGI,[4],> 100 µM
same,TGI,[5],> 100 µM
same,TGI,[6],> 100 µM
same,TGI,[7],> 100 µM
same,TGI,[8],64.2 µM
same,TGI,[9],93.9 µM
same,TGI,[10],> 100 µM
same,TGI,[11],> 100 µM
same,TGI,[12],> 100 µM
same,TGI,[13],> 100 µM
same,TGI,[14],> 100 µM
same,TGI,[15],> 100 µM
same,TGI,[16],> 100 µM
same,TGI,[17],> 100 µM
same,TGI,[18],> 100 µM
same,TGI,[19],> 100 µM
same,TGI,[20],> 100 µM
same,TGI,[21],> 100 µM
same,TGI,[22],> 100 µM
same,TGI,[23],> 100 µM
same,TGI,[24],> 100 µM
same,TGI,[25],> 100 µM
same,TGI,[26],50.8 µM
same,TGI,[56],> 100 µM
same,TGI,[27],> 100 µM
same,TGI,[28],84.7 µM
same,TGI,[29],> 100 µM
same,TGI,[57],> 100 µM
same,TGI,[30],> 100 µM
same,TGI,[31],> 100 µM
same,TGI,[32],> 100 µM
same,TGI,[34],> 100 µM
same,TGI,[36],83.8 µM
same,TGI,[37],53.5 µM
same,TGI,[38],> 100 µM
same,TGI,[39],> 100 µM
same,TGI,[58],> 100 µM
same,TGI,[40],> 100 µM
same,TGI,[42],96.4 µM
same,TGI,[43],> 100 µM
same,TGI,[44],> 100 µM
same,TGI,[45],> 100 µM
same,TGI,[47],> 100 µM
same,TGI,[48],> 100 µM
same,TGI,[49],> 100 µM
same,TGI,[50],> 100 µM
same,TGI,[51],> 100 µM
same,TGI,[52],> 100 µM

# — PubChem BioAssay (NCI)
